According to patent publication US7368454B2, “(3,4-dihydro-quinazolin-2-yl)-aryl-amines” (Hoffmann-La Roche Inc., priority 2005, dated 2008):

Target: T1, recombinant human 5-HT5A receptor (Homo sapiens, UniProt P47898)
T1 construct: expressed in transfected cells; host or cells: Human Embryonic Kidney-EBNA (HEK-EBNA) cells, transient expression, membranes
Assay: [3H]LSD radioligand binding assay
Conditions: [3H]LSD approx. 1 nM; membranes from HEK-EBNA cells transiently expressing 5-HT5A; SPA; Ki from IC50 by Cheng-Prussoff equation
Protocol: A [^3H]LSD radioligand binding assay was used to determine the affinity of the compounds for the recombinant human 5-HT5A receptor, in membranes from transiently (cDNA) expressed 5-HT 5A receptors in Human Embryonic Kidney-EBNA (HEK-EBNA) cells. Assay buffer consisted of Tris (50 mM) buffer containing 1 mM EGTA, 10 mM MgCl2 (pH 7.4) and 10 μM pargyline. The binding assay was carried out in 96-well-plates in the presence of [^3H]LSD (approximately 1 nM), approximately 2 μg/well of membrane protein, and 0.5 mg of Ysi-poly-1-lysine SPA beads in a final volume of 200 μl of buffer. Non-specific binding was defined using methiothepin 2 μM. Compounds were tested at 10 concentrations. All assays were conducted in duplicate and repeated at least two times. Assay plates were incubated for 120 min at room temperature before centrifugation. Bound ligand was determined using a Packard Topcount scintillation counter. IC50 values were calculated using a non-linear curve fitting program and Ki values calculated using the Cheng-Prussoff equation.

T1 sequence (P47898 whole entry): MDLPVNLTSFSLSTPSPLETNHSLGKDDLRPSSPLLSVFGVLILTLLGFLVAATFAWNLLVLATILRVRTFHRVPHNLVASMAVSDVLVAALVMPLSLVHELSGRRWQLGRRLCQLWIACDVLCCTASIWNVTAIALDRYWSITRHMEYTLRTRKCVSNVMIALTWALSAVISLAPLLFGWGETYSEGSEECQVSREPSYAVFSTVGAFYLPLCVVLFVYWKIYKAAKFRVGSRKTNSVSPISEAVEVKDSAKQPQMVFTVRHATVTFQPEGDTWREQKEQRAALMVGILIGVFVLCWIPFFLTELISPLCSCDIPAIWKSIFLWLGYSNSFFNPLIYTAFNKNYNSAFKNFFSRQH

`c1ccc2c(c1)CNC(Nc1ccc3c(c1)CCC3)=N2` [Example 5, (3,4-Dihydro-quinazolin-2-yl)-indan-5-yl-amine] was tested, and the Ki was 149 nM.
With `FC(F)(F)c1cccc(NC2=Nc3cccc(Cl)c3CN2)c1` [Example 3, (5-Chloro-3,4-dihydro-quinazolin-2-yl)-(3-trifluoromethyl-phenyl)-amine] the Ki was 118 nM.
With `Clc1ccc(NC2=Nc3ccccc3CN2)cc1` [Example 15, (4-Chloro-phenyl)-(3,4-dihydro-quinazolin-2-yl)-amine] the Ki was 990 nM.
In the case of `FC(F)(F)c1cccc(NC2=Nc3ccccc3CN2)c1` [Example 2, (3,4-Dihydro-quinazolin-2-yl)-(3-trifluoromethyl-phenyl)-amine], the Ki is reported as 91 nM.
Molecule `Cc1cccc(NC2=Nc3ccccc3CN2)c1` [Example 4, (3,4-Dihydro-quinazolin-2-yl)-m-tolyl-amine] has a Ki of 143 nM.
In the case of `Clc1cccc(NC2=Nc3ccccc3CN2)c1` [Example 10, (3-Chloro-phenyl)-(3,4-dihydro-quinazolin-2-yl)-amine], the Ki is reported as 300 nM.
With `Fc1ccccc1NC1=Nc2ccccc2CN1` [Example 16, (3,4-Dihydro-quinazolin-2-yl)-(2-fluoro-phenyl)-amine; hydriodide] the Ki was 1000 nM.
For `Cc1cccc2c1CNC(Nc1cccc(C(F)(F)F)c1)=N2` [Example 1, (5-Methyl-3,4-dihydro-quinazolin-2-yl)-(3-trifluoromethyl-phenyl)-amine], the Ki was 85 nM.
With `c1ccc2c(c1)CNC(Nc1cccc3ccccc13)=N2` [Example 6, (3,4-Dihydro-quinazolin-2-yl)-naphthalen-1-yl-amine] the Ki was 155 nM.
